According to PMC8748766, “The catalytic activity of TCPTP is auto-regulated by its intrinsically disordered tail and activated by Integrin alpha-1” (Nature Communications, 2022):

Experiments:
Format in all cases: biochemical
TCPTP [1] = target: T1, TCPTP (Homo sapiens, UniProt P17706); assay: Kinetics of TCPTP with saturating ITGA1 peptide, pEGFR peptide-1 substrate; settings: TCPTP saturated with ITGA1 peptide (ITGA1_TR 1 μM; ITGA1_FCT 25 μM), mean ± SE, n = 9
T1 construct: fragments of TCPTP (residues: 1–387); His6 (N, cleaved yes); made in house; host or cells: E. coli BL21 (DE3) RIL
T1 sequence (P17706 1-387 isoform P17706-2): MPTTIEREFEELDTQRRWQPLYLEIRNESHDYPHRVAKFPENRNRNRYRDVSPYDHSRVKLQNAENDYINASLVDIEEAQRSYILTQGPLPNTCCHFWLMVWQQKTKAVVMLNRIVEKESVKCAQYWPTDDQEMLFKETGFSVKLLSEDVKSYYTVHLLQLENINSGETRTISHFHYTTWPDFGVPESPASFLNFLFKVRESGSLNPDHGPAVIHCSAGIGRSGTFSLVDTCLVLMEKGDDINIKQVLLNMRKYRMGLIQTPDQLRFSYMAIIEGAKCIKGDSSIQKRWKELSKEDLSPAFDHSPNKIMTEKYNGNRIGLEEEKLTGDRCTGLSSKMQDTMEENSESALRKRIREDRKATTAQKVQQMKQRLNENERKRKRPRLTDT
From the text: (§1) Polymerase chain reaction (PCR) fragments of TCPTP (residues: 1–387) TCPTPCAT (catalytic domain, residues: 1–288, 1–302 or 1–314), TCPTPTail (C-terminal tail, residues: 289–387 or 303–387) were amplified from full-length human TCPTP (TC45 isoform). TCPTP, TCPTPCAT (residues: 1–288, 1–314), and TCPTPTail (residues: 289–387) fragments were cloned into pMCSG7 including a N-terminal His6-tag using ligation-independent cloning. For all NMR experiments, the PCR fragments of TCPTP, TCPTPCAT (residues: 1–302) and TCPTPTail (residue: 303–387) were sub-cloned into pRP1B as previously described.
(§2) The rate of dephosphorylation of TCPTP and TCPTPCAT (residue 1–314) against 2 phosphotyrosine peptides derived from EGFR was monitored either with or without ITGA1 peptide (ITGA1_FCT & ITGA1_TR) in assay buffer (25 mM Hepes pH 7.4, 50 mM NaCl and 1 mM DTT). Lyophilized powder of all synthetic peptides was dissolved in assay buffer without DTT (phosphopeptides, 5 mM; ITGA1 peptides, 2 mM). For the kinetic analysis, the concentration of the enzyme was fixed at 1 nM while the substrate (phosphopeptides) concentration was varied from 2.5 μM to 160 μM in a total reaction volume of 200 μl. Effect of ITGA1 peptide on TCPTP & TCPTPCAT kinetics were assessed in saturated condition by adding an excess amount of ITGA1 peptide to the reaction mixture (ITGA1_TR = 1 μM; ITGA1_FCT = 25 μM). The reaction was incubated at 30 °C for 30 min and stopped by the addition of 30 μl phosphate reagent (phosphate colorimetric assay kit; Bio Vision) following the manufacturer’s instructions. Data were normalized and fitted using a nonlinear curve, and kinetics parameters (KM and kcat) were calculated from the Michaelis-Menten equation using Graph Pad Prism 9.0. All data points in the enzyme kinetics experiment were measured in triplicate, and the experiments were repeated three times.

TCPTPCAT [2] = target: T2, TCPTPCAT (Homo sapiens, UniProt P17706); assay: Kinetics of TCPTPCAT with saturating ITGA1 peptide, pEGFR peptide-2 substrate; settings: TCPTPCAT saturated with ITGA1 peptide (ITGA1_TR 1 μM), mean ± SE, n = 9
T2 construct: TCPTP and TCPTPCAT (residue 1–314) against 2 phosphotyrosine peptides derived from EGFR; His6 (N, cleaved yes); made in house; host or cells: E. coli BL21 (DE3) RIL
T2 sequence (P17706 1-314 isoform P17706-2): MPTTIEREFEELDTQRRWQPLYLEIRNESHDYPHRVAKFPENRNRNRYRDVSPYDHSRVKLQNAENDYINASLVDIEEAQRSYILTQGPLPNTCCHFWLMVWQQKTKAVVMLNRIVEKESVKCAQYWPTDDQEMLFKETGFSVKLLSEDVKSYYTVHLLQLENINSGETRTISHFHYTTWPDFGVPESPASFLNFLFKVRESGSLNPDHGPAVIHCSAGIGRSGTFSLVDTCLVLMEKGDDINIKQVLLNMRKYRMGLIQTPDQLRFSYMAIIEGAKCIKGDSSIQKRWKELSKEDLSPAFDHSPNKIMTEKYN
From the text: as §1, §2

TCPTP [3] = target: T1, TCPTP; assay: EC50 assay: TCPTP activation by ITGA1 peptides (pEGFR peptide-1 dephosphorylation); settings: 1 nM TCPTP, 50 μM pEGFR peptide-1, pH 7.4, 30 °C 30 min, n = 3
From the text: as §1
To determine the EC50, synthesized ITGA1 peptides (ITGA1_FCT, ITGA1_TCT and ITGA1_TR) were mixed with TCPTP, and phosphatase activity was measured using the phospho-EGFR peptides (pEGFR peptide-1) as substrate. Lyophilized powder of all peptides was dissolved in 25 mM Hepes pH 7.4, 50 mM NaCl. For the assay, the TCPTP concentration was fixed at 1 nM and substrate phospho-peptide at 50 μM. […] The absorbance of the reaction mixture was measured at 650 nm, which was converted to the amount of phosphate produced in reaction based on the standard curve generated from the known phosphate concentration. Data obtained from the reaction was fitted using nonlinear regression mode and EC50 values were calculated based on the equation function “Log(agonist) vs. response-variable slope” using Graph Pad Prism 9.0.

TCPTP [4] = target: T1, TCPTP; assay: Kinetics of TCPTP with saturating ITGA1 peptide, pEGFR peptide-2 substrate; settings: TCPTP saturated with ITGA1 peptide (ITGA1_TR 1 μM; ITGA1_FCT 25 μM), mean ± SE, n = 9
From the text: as §1, §2

TCPTPCAT [5] = target: T2, TCPTPCAT; assay: Kinetics of TCPTPCAT with saturating ITGA1 peptide, pEGFR peptide-1 substrate; settings: TCPTPCAT saturated with ITGA1 peptide (ITGA1_TR 1 μM), mean ± SE, n = 9
From the text: as §1, §2

[6] = pEGFR peptide-1, 1 nM enzyme, pH 7.4, 30 °C 30 min
[7] = pEGFR peptide-2, pH 7.4, 30 °C 30 min

“RPLKKKMEKRPLKKKMEK [ITGA1_TR, ITGA1 tandem repeat (2x ITGA1_TCT): …]” was tested, and the kcat (TCPTP [1]; [6]) was 26.2 ± 0.6 s⁻¹, the Km (TCPTP [1]; pEGFR peptide-1, pH 7.4, 30 °C) was 15.9 ± 1.3 µM and the kcat/Km (TCPTP [1]; pEGFR peptide-1) was 1.6 ± 0.1 µM⁻¹ s⁻¹. For the same sequence, the kcat (TCPTPCAT [2]; [7]) was 35.6 ± 0.6 s⁻¹, the Km (TCPTPCAT [2]; pEGFR peptide-2) was 28.3 ± 1.3 µM and the kcat/Km (TCPTPCAT [2]; pEGFR peptide-2) was 1.2 ± 0.1 µM -1s-1. For the same sequence, the “activation in EC50 assays (rank)” value (TCPTP [3]) was “strongest activation”, the kcat (TCPTP [4]; [7]) was 34.7 ± 2.3 s⁻¹ and the Km (TCPTP [4]; pEGFR peptide-2) was 40.9 ± 6.8 µM. The kcat/Km (TCPTP [4]; pEGFR peptide-2) was 0.8 ± 0.1 µM -1s-1, the kcat (TCPTPCAT [5]; [6]) was 31.1 ± 0.7 s⁻¹ and the Km (TCPTPCAT [5]; pEGFR peptide-1, pH 7.4, 30 °C) was 23 ± 1.6 µM. For the same sequence, the kcat/Km (TCPTPCAT [5]; pEGFR peptide-1) was 1.3 ± 0.1 µM⁻¹ s⁻¹.
